Earlier results as cited in patent US11311573B2, “Pharmaceutical preparations and methods to manage weight and to modulate the gut microbiota” (XENO BIOSCIENCES INC., priority 2016, dated 2022).

Conditions: rat, based on chronic oral hydrogen peroxide treatment

Question: Which “No-observable-adverse-effect-level (NOAEL)” value does the source give for O=C([O-])[O-].O=C([O-])[O-].OO.OO.OO.[Na+].[Na+].[Na+].[Na+] [sodium percarbonate, Sodium percarbonate] here?
Answer: Its value is 81 to 115 mg/kg/day.
